These results are taken from patent US11897862B2 (Gilead Sciences, Inc., priority 2022, dated 2024).

Format in all cases: cell-based
One assay addresses T1, IKZF1 (Homo sapiens, UniProt Q13422+Q96SW2).
T1 construct: expressed in transfected cells
Put plainly: HEK293 HiBiT in vitro degradation of IKZF1. To be noted: for DC50 / IKZF1 Dmax: HEK293 HiBiT; for DC50: 18-24 hr incubation, normalized to DMSO control, read-out: IKZF1 EC50; for Dmax: HEK293, HEK293 HiBiT; for Dmax / IKZF1 Dmax: maximum degradation at the highest concentration tested. In short, it runs like this:
(§1)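 Degradation was scored as loss of HiBiT signal from C-terminally tagged IKZF1, IKZF2 or SALL4 in doxycycline-induced Flp-In T-REx HEK293 cells after overnight (18-24 h) compound treatment. EC50 and Dmax were derived from the luminescence.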
For orientation: HiBiT is a short tag that completes a luciferase, so light tracks the accessible tagged protein.

Assay [1] concerns the target T2, IKZF2 (Homo sapiens, UniProt Q96SW2+Q9UKS7). Put plainly: Human whole blood IKZF2 degradation (flow cytometry, CD4/CD25/Foxp3+ Treg cells). Further details: endogenous in cells. As to conditions: 24 hrs incubation, IKZF2 MFI in CD4/CD25/Foxp3+ Treg cells, flow cytometry; for DC50: read-out: IKZF2 EC50. The method, then: In vitro IKZF2 potency was assessed in human whole blood using a fluorescence activated cell sorting assay. 50 μL of freshly collected blood from healthy human volunteers was incubated with Immunocult CD3/CD28 activator (Stemcell Technologies) and solution of testing compounds (serially-diluted) for 24 hrs hours at 37° C. in 384 well plates. The treated red blood cells were removed by adding lysis buffer (BD cat #558049) then the cells were fixed, permeabilized, and stained with anti-CD4 (BD cat #564419), anti-Foxp3 (Invitrogen cat #48-4777-42), anti-IKZF1 (Cell Signaling Tech. cat #33462S), and anti-IKZF2(Cell Signaling Tech. cat #65432S) antibodies. The median fluorescent intensity (MFI) of IKZF2 signal from CD4/CD25/Foxp3+ Treg cells and MFI of IKZF1 signal from CD4+ T cells were quantified in the same samples by flow cytometry using an Attune instrument. EC50 and Dmax of each compound was determined by plotting the MFI and DMSO treated wells were used as control. Asterisks (*) indicate examples for which data represents an average of n≥3 repeat experiments.
Target sequence in this assay (Q9UKS7 whole entry): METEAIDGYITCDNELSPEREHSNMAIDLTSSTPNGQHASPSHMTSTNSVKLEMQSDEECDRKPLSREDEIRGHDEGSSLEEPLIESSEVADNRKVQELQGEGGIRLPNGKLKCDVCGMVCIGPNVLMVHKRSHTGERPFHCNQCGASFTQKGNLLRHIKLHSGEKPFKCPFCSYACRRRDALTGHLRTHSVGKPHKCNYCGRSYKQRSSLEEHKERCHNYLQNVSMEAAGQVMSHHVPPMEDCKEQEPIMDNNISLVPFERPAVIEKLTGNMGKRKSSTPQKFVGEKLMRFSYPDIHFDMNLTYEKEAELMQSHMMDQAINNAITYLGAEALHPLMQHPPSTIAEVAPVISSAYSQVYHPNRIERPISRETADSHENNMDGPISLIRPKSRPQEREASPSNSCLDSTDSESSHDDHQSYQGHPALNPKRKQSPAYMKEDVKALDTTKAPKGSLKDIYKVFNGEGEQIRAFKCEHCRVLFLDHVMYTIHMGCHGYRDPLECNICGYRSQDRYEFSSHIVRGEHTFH
Target sequence in this assay (Q96SW2 whole entry): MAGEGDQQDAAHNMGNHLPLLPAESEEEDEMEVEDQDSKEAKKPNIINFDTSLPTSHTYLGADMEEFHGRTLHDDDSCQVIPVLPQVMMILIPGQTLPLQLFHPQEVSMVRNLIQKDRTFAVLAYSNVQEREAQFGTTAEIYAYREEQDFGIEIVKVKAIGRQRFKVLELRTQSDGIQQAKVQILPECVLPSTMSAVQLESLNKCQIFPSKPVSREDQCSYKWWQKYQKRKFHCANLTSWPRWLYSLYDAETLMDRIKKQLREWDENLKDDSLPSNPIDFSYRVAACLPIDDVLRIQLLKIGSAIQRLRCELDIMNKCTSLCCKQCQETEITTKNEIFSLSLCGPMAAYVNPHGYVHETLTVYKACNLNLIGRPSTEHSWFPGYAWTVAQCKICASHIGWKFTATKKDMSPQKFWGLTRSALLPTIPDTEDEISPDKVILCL
Target sequence in this assay (Q16531 whole entry partner): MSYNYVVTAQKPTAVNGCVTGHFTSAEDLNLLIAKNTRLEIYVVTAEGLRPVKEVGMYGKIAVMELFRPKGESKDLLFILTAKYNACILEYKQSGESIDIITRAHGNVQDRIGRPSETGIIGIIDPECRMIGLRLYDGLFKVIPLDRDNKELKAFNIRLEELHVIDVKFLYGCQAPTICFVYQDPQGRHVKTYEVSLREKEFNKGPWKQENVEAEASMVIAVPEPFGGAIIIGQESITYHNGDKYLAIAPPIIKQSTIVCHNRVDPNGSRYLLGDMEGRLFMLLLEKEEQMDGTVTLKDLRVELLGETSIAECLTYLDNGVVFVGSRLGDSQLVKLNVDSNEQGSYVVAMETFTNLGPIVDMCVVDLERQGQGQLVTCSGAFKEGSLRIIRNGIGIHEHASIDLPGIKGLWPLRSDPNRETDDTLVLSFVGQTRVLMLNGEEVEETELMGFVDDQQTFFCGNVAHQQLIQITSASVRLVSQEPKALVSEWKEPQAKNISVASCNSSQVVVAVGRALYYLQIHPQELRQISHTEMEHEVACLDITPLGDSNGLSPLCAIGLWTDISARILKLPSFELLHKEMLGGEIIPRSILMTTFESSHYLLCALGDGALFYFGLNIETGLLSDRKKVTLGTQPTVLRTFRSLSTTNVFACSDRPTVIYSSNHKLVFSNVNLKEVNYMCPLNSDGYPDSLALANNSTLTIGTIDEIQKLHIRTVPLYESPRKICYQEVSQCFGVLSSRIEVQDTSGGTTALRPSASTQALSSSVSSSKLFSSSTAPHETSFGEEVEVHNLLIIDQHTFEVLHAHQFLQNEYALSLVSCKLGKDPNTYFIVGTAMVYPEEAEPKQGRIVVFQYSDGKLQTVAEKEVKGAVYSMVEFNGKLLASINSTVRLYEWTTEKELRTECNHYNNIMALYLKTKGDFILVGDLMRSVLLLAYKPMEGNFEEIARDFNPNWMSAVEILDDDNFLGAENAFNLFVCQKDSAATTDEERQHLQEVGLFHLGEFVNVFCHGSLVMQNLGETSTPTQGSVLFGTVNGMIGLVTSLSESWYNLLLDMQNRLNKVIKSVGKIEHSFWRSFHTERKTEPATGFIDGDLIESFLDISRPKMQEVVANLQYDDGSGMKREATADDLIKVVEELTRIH

Assay [2] has as its target T2, IKZF2. Put plainly: HEK293 HiBiT in vitro degradation of IKZF2. To be noted: for Dmax: HEK293, HEK293 HiBiT; for Dmax / IKZF2 Dmax: maximum degradation at the highest concentration tested; for DC50 / IKZF2 Dmax: HEK293 HiBiT; for DC50: 18-24 hr incubation, normalized to DMSO control, read-out: IKZF2 EC50. Also on record: expressed in transfected cells. In short, it runs like this: as §1
Target sequence in this assay (Q9UKS7 1-500 isoform Q9UKS7-2): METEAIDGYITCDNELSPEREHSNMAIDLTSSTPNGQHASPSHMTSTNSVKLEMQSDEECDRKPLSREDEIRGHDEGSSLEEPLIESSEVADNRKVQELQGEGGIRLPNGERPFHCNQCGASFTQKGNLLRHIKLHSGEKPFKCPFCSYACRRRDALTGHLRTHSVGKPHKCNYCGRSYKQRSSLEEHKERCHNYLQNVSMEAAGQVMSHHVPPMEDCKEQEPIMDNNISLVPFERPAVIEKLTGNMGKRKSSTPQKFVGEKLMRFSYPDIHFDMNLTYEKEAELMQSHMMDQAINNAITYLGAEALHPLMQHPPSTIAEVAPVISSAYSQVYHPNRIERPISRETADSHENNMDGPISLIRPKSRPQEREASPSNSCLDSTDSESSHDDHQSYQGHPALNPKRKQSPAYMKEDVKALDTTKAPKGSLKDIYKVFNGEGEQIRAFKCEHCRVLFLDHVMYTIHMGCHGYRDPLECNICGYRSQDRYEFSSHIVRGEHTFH
Target sequence in this assay (Q96SW2 whole entry): as the sequence (Q96SW2 whole entry) above
Target sequence in this assay (Q16531 whole entry partner): as the sequence (Q16531 whole entry partner) above

T1 sequence (Q13422 whole entry): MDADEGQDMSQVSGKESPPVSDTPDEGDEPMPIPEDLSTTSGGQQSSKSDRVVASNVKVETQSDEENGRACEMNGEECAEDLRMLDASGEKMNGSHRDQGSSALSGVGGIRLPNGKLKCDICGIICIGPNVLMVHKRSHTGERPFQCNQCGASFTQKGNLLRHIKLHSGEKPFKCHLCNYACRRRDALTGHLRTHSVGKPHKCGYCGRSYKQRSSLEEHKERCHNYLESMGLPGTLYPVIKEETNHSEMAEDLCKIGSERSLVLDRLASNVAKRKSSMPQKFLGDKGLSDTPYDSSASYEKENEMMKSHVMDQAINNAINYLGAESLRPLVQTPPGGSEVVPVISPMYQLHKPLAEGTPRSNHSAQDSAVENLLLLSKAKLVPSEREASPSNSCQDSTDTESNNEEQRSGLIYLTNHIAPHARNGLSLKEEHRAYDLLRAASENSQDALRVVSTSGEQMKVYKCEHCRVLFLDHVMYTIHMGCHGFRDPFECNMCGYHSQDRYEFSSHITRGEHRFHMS
T1 sequence (Q96SW2 whole entry): as the sequence (Q96SW2 whole entry) above
T1 sequence (Q16531 whole entry partner): as the sequence (Q16531 whole entry partner) above

A word on the Dmax: it is the greatest extent of degradation seen. For the compound `O=C1CCC(N2Cc3cc(C[C@H]4CCCC[C@@H]4NC4CCCC4)ccc3C2=O)C(=O)N1` (stereo partly drawn) [Example 52, 3-(5-(((1R,2S)-2-(cyclopentylamino)cyclohexyl)methyl)-1-oxoisoindolin-2-yl)piperidine-2,6-dione], the results for the DC50 at IKZF1, at IKZF2 [1] and on IKZF2 [2] were above 1000 nM, 5 nM and 6 nM, respectively. In addition, the Dmax was 95% on IKZF2 [1] and 96% at IKZF2 [2].

Take `C[C@]1(O)CC[C@H](NC2CCC(F)(F)CC2)[C@@H](Cc2ccc3c(c2)CN(C2CCC(=O)NC2=O)C3=O)C1` (stereo partly drawn) [Example 155]: the Dmax is 27% at IKZF1, 91% on IKZF2 [1] and 97% at IKZF2 [2]. The DC50 was 226 nM on IKZF1, 12 nM on IKZF2 [1] and 30 nM at IKZF2 [2].

On to `COCC1CCC(N[C@H]2CCCC[C@@H]2Cc2ccc3c(c2)CN(C2CCC(=O)NC2=O)C3=O)CC1` (single isomer, unassigned) [Example 252], for which the DC50 on IKZF1 was determined as 105 nM; on IKZF2 [1], 1 nM; on IKZF2 [2], 3 nM. Also, at IKZF1, the “IKZF1 Dmax” value turned out to be 31%. Further, the “IKZF2 Dmax” value at IKZF2 [1] stood at 97%; on IKZF2 [2], 98%.

As for `O=C1CCC(N2Cc3cc(C[C@H]4CCCC[C@@H]4NC4CCOCC4)ccc3C2=O)C(=O)N1` (stereo partly drawn) [Example 74], the figures for the greatest degradation seen (Dmax) on IKZF1, on IKZF2 [1] and on IKZF2 [2] were 55%, 93% and 96%, respectively. Further, the DC50 on IKZF1 amounted to 226 nM; on IKZF2 [1], 3 nM; at IKZF2 [2], 4 nM.

For `O=C1CCC(N2Cc3cc(C[C@H]4CCCC[C@@H]4NC4CCC5(CC4)CC5(F)F)ccc3C2=O)C(=O)N1` (single isomer, unassigned) [Example 272], on IKZF1, the DC50 is 40 nM and the “IKZF1 Dmax” value is given as 54%. In addition, on IKZF2 [1], the Dmax amounted to 97% and the DC50 came out at 2 nM. In addition, at IKZF2 [2], the DC50 came to 1 nM and the “IKZF2 Dmax” value stood at 98%.

`O=C1CCC(N2Cc3c(ccc(C[C@H]4CCCC[C@@H]4NC4CCOC4)c3F)C2=O)C(=O)N1` (stereo partly drawn) [Example 117]: the results for the Dmax on IKZF1, at IKZF2 [1] and at IKZF2 [2] were 46%, 92% and 97%, respectively. The figures for the DC50 at IKZF1, on IKZF2 [1] and on IKZF2 [2] were 39 nM, 1 nM and 2 nM, respectively.

Turning to `CC1(C)CC(N[C@H]2CCCC[C@@H]2Cc2ccc3c(c2)CN(C2CCC(=O)NC2=O)C3=O)C1` (stereo partly drawn) [Example 82, 3-(5-(((1R,2S)-2-((3,3-dimethylcyclobutyl)amino)cyclohexyl)methyl)-1-oxoisoindolin-2-yl)piperidine-2,6-dione], the figures for the Dmax on IKZF1, at IKZF2 [1] and on IKZF2 [2] were 28%, 89% and 94%, respectively. Also, the DC50 is 327 nM on IKZF1, 4 nM on IKZF2 [1] and 7 nM at IKZF2 [2].

Consider `O=C1CCC(N2Cc3cc(C[C@H]4CCCC[C@@H]4NC4CC5(C4)CC(F)(F)C5)ccc3C2=O)C(=O)N1` (stereo partly drawn) [Example 101], for which the Dmax at IKZF1 was 32%; at IKZF2 [1], 95%; on IKZF2 [2] it was 98%. The DC50 came to 39 nM at IKZF1, 6 nM on IKZF2 [1] and 5 nM at IKZF2 [2].

With `O=C1CCC(N2Cc3cc(C[C@H]4CCCC[C@@H]4NC4CCC(C(F)(F)F)CC4)ccc3C2=O)C(=O)N1` (single isomer, unassigned) [Example 122], at IKZF1, the DC50 worked out at 57 nM and the “IKZF1 Dmax” value is 45%. On IKZF2 [1], the Dmax stood at 97% and the DC50 worked out at 2 nM. Besides, on IKZF2 [2], the DC50 came out at 2 nM and the “IKZF2 Dmax” value came out at 96%.

As to `CN(C1CCC(F)(F)CC1)[C@H]1CCCC[C@@H]1Cc1ccc2c(c1F)CN(C1CCC(=O)NC1=O)C2=O` (stereo partly drawn) [Example 124], the DC50 was above 10000 nM at IKZF1, 23 nM at IKZF2 [1] and 16 nM at IKZF2 [2]. Besides, the Dmax came out at 91% at IKZF2 [1] and 94% on IKZF2 [2].

For `CC(CC(F)(F)F)N[C@H]1CCCC[C@@H]1Cc1ccc2c(c1)CN(C1CCC(=O)NC1=O)C2=O` (single isomer, unassigned) [Example 250], on IKZF1, the Dmax is 30% and the DC50 was 117 nM. For the same compound, on IKZF2 [1], the greatest degradation seen (Dmax) is 100% and the DC50 came out at 4 nM. Also, on IKZF2 [2], the DC50 was 2 nM and the “IKZF2 Dmax” value is listed as 97%.

`CC(N[C@H]1CCCC[C@@H]1Cc1ccc2c(c1)CN(C1CCC(=O)NC1=O)C2=O)C1CCC1` (stereo partly drawn) [Example 219]: the figures for the DC50 on IKZF1, at IKZF2 [1] and at IKZF2 [2] were above 1000 nM, 10 nM and 6 nM, respectively. Besides, the “IKZF2 Dmax” value at IKZF2 [1] turned out to be 97%; at IKZF2 [2], 95%.

Consider `O=C1CCC(N2Cc3cc(C[C@H]4CCCC[C@@H]4NC4CCC(OC(F)(F)F)CC4)ccc3C2=O)C(=O)N1` (single isomer, unassigned) [Example 145], for which the Dmax at IKZF1 was 44%; on IKZF2 [1] it was 100%; at IKZF2 [2], 96%. For the same compound, the figures for the DC50 on IKZF1, at IKZF2 [1] and at IKZF2 [2] were 55 nM, 4 nM and 2 nM, respectively.

For `CC(N[C@H]1CCCC[C@@H]1Cc1ccc2c(c1)CN(C1CCC(=O)NC1=O)C2=O)C1CC(F)(F)C1` (single isomer, unassigned) [Example 136], the DC50 was above 1000 nM on IKZF1, 6 nM on IKZF2 [1] and 4 nM on IKZF2 [2]. Moreover, the Dmax at IKZF2 [1] and on IKZF2 [2] was 97% in each case.

Consider `CC(N[C@H]1CCCC[C@@H]1Cc1ccc2c(c1F)CN(C1CCC(=O)NC1=O)C2=O)C1CCOCC1` (single isomer, unassigned) [Example 288], for which, on IKZF1, the DC50 was found to be 399 nM and the “IKZF1 Dmax” value is reported as 32%. At IKZF2 [1], the “IKZF2 Dmax” value is listed as 92% and the DC50 was 5 nM. On IKZF2 [2], the DC50 is 6 nM and the “IKZF2 Dmax” value is listed as 97%.

As for `CC(CC(C)(C)C)N[C@H]1CCCC[C@@H]1Cc1ccc2c(c1)CN(C1CCC(=O)NC1=O)C2=O` (stereo partly drawn) [Example 220], at IKZF1, the DC50 was above 1000 nM. Moreover, at IKZF2 [1], the maximal degradation (Dmax) stood at 98% and the DC50 amounted to 3 nM. Also, at IKZF2 [2], the DC50 came to 2 nM and the “IKZF2 Dmax” value came out at 96%.

With `CC1(C)CC(N[C@H]2CCCO[C@@H]2Cc2ccc3c(c2F)CN(C2CCC(=O)NC2=O)C3=O)CCO1` (stereo partly drawn) [Example 222], the DC50 was above 1000 nM on IKZF1, 6 nM on IKZF2 [1] and 18 nM on IKZF2 [2]. The Dmax at IKZF2 [1] worked out at 95%; on IKZF2 [2], 96%.

Consider `O=C1CCC(N2Cc3cc(C[C@H]4CCCC[C@@H]4NC4CC5(CCOCC5)C4)ccc3C2=O)C(=O)N1` (stereo partly drawn) [Example 125], for which the maximal degradation (Dmax) was determined as 26% at IKZF1, 91% at IKZF2 [1] and 96% at IKZF2 [2]. Also, the values for the DC50 at IKZF1, on IKZF2 [1] and on IKZF2 [2] were 126 nM, 3 nM and 17 nM, respectively.

Take `CC(C)(C)CCN[C@H]1CCCC[C@@H]1Cc1ccc2c(c1F)CN(C1CCC(=O)NC1=O)C2=O` (stereo partly drawn) [Example 89, 3-(5-(((1R,2S)-2-((3,3-dimethylbutyl)amino)cyclohexyl)methyl)-4-fluoro-1-oxoisoindolin-2-yl)piperidine-2,6-dione]: the Dmax at IKZF1 came to 28%; on IKZF2 [1], 97%; on IKZF2 [2], 97%. Moreover, the DC50 came to 64 nM at IKZF1, 5 nM on IKZF2 [1] and 6 nM on IKZF2 [2].

Consider `O=C1CCC(N2Cc3c(ccc(C[C@H]4OCCC[C@@H]4NC4CCOCC4)c3F)C2=O)C(=O)N1` (stereo partly drawn) [Example 305], for which the results for the DC50 at IKZF1, at IKZF2 [1] and at IKZF2 [2] were above 1000 nM, 4 nM and 14 nM, respectively. Besides, the Dmax on IKZF2 [1] worked out at 95%; on IKZF2 [2] it was 96%.

Consider `O=C1CCC(N2Cc3c(ccc(C[C@H]4CCCC[C@@H]4NC4CCOC4)c3F)C2=O)C(=O)N1` (stereo partly drawn) [Example 118], for which, on IKZF1, the DC50 came out at 57 nM and the “IKZF1 Dmax” value stood at 44%. On IKZF2 [1], the “IKZF2 Dmax” value was 91% and the DC50 is 1 nM. On IKZF2 [2], the DC50 amounted to 2 nM and the “IKZF2 Dmax” value came out at 97%.

`CC1(C)CC(N[C@H]2CCCO[C@@H]2Cc2ccc3c(c2F)CN(C2CCC(=O)NC2=O)C3=O)CCO1` (stereo partly drawn) [Example 223]: the DC50 on IKZF1 was above 1000 nM; at IKZF2 [1], 3 nM; at IKZF2 [2], 12 nM. Further, the “IKZF2 Dmax” value at IKZF2 [1] is 95%; at IKZF2 [2], 96%.

As for `CC(N[C@H]1CCCO[C@@H]1Cc1ccc2c(c1F)CN(C1CCC(=O)NC1=O)C2=O)C1CCC1` (single isomer, unassigned) [Example 247], the DC50 on IKZF1 was above 1000 nM; at IKZF2 [1], 4 nM; on IKZF2 [2] it was 5 nM. Moreover, the Dmax was determined as 95% on IKZF2 [1] and 97% on IKZF2 [2].
